{"source": "patent US20220117958A1", "about": "“COMPOSITIONS AND METHODS FOR INHIBITING ACSS2” (THE TRUSTEES OF THE UNIVERSITY OF PENNSYLVANIA, priority 2018, published 2022)", "key": {"[1]": {"assay": "Turbidity-based aqueous solubility", "assay_type": "physicochemical", "details": "aqueous solution (composition not given), kinetic from dmso stock, read-out: highest soluble concentration", "description": "(§1) Table 20 provides results of in vitro and in vivo pharmacokinetics performed for each of the represented compounds."}, "[2]": {"assay": "In vivo PK, oral gavage, plasma", "set-up": "species or system Rat (SD)", "details": "Rat, PO 5 mg/kg, 24.0 hr; BQL limit 1.00 ng/mL; listed as AUG I-207, 5 mg/kg"}, "[3]": {"assay": "Microsomal stability assay (half-life), human", "assay_type": "in vitro ADME", "details": "Human microsomes, read-out: Microsomal stability T1/2", "description": "as §1"}, "[4]": {"assay": "In vivo PK, oral gavage, plasma", "set-up": "species or system Rat (SD)", "details": "for Plasma concentration, mean: Rat (SD), BQL = below quantitation limit (1.00 ng/mL); for Plasma concentration, mean / Plasma concentration, individual animal: PO 5 mg/kg", "description": "as §1\n(§2) Tables 4 and 5 depict the summary of rat plasma sample concentrations after administration of ADG I-204. FIG. 6 provides a summary of rat plasma and brain concentrations."}, "[5]": {"assay": "Microsomal stability assay (half-life), rat", "assay_type": "in vitro ADME", "details": "Rat (SD) microsomes, read-out: Microsomal stability T1/2", "description": "as §1"}, "[6]": {"system": "H3K9ac", "assay": "Western blot, differentiated CAD cell lysates, H3K9ac levels", "assay_type": "cell-based", "details": "differentiated CAD cells, DMSO = 100.00%", "description": "as §1"}, "[7]": {"assay": "In vivo PK, IV dose, plasma", "set-up": "species or system Rat (SD)", "details": "for Plasma concentration, mean / Plasma concentration, individual animal: IV 1 mg/kg", "description": "as §1, §2"}, "[8]": {"assay": "In vivo PK, IV dose, Terminal - brain (brain availability)", "set-up": "species or system Rat (SD)", "details": "for Brain concentration, mean / Brain concentration, individual animal: IV 1 mg/kg", "procedure": "Table 3 and FIG. 5 depict the brain availability of ADG I-204, ADG I-205, ADG I-206, and ADG I-207 after IV administration of 1 mg/kg dose."}, "[9]": {"assay": "Microsomal stability assay (half-life), mouse", "assay_type": "in vitro ADME", "details": "Mouse (CD1) microsomes, read-out: Microsomal stability T1/2", "description": "as §1"}, "[10]": {"assay": "Protein binding via Rapid Equilibrium Dialysis - plasma", "assay_type": "in vitro ADME", "details": "Rat (SD) plasma, 2 μM", "description": "as §1"}}, "note": "Where “and” joins values, the source holds several entries; their conditions need not be identical. Identical values can stand only once. Like-named read-outs stand apart in the source and are kept apart here. Marks after values point to notes of the source that are not given here.", "data": [{"smiles": "O=C(Nc1ccc2nc(-c3cccs3)c(-c3cccs3)nc2c1)NC12CC3CC(CC(C3)C1)C2", "note": "[ADG-207, 1-((1S,3s)-adamantan-1-yl)-3-(2,3-di(thiophen-2-yl)quinoxalin-6-yl)urea]", "values": [{"measurement": "solubility", "setting": "[1]", "value": 5, "unit": "µM"}, {"measurement": "Plasma concentration, individual animal", "setting": "[2]", "value": "BQL"}, {"measurement": "half-life at 2 μM", "setting": "[3]", "value": 18.7, "unit": "min"}, {"measurement": "Plasma concentration, mean", "setting": "[4]; 0.25 hr", "value": "BQL"}, {"measurement": "Plasma concentration, mean", "setting": "[4]; 0.5 hr", "value": "BQL"}, {"measurement": "Plasma concentration, mean", "setting": "[4]; 1 hr", "value": "BQL"}, {"measurement": "Plasma concentration, mean", "setting": "[4]; 4 hr", "value": "BQL"}, {"measurement": "Plasma concentration, mean", "setting": "[4]; 8 hr", "value": "BQL"}, {"measurement": "Plasma concentration, mean", "setting": "[4]; 24 hr", "value": "BQL"}, {"measurement": "Plasma concentration, individual animal", "setting": "[4]; Rat, 0.250 hr, BQL limit 1.00 ng/mL", "value": "BQL"}, {"measurement": "Plasma concentration, individual animal", "setting": "[4]; Rat, 0.500 hr, BQL limit 1.00 ng/mL", "value": "BQL"}, {"measurement": "Plasma concentration, individual animal", "setting": "[4]; Rat, 1.00 hr, BQL limit 1.00 ng/mL", "value": "BQL"}, {"measurement": "Plasma concentration, individual animal", "setting": "[4]; Rat, 4.00 hr, BQL limit 1.00 ng/mL", "value": "BQL"}, {"measurement": "Plasma concentration, individual animal", "setting": "[4]; Rat, 8.00 hr, BQL limit 1.00 ng/mL", "value": "BQL"}, {"measurement": "concentration at 24 h", "setting": "[4]; SD, rat, plasma, po, 5 mg/kg, Rat, 24.0 hr, BQL limit 1.00 ng/mL, read-out: Plasma concentration, individual animal", "value": 1.18, "unit": "ng/mL"}, {"measurement": "half-life at 2 μM", "setting": "[5]", "value": 5.5, "unit": "min"}, {"measurement": "H3K9ac levels normalized to H3 and DMSO control", "setting": "[6]; 1 uM", "value": 57.45, "unit": "%"}, {"measurement": "H3K9ac levels normalized to H3 and DMSO control", "setting": "[6]; 5 uM", "value": 63.69, "unit": "%"}, {"measurement": "H3K9ac levels normalized to H3 and DMSO control", "setting": "[6]; 10 uM", "value": 72.97, "unit": "%"}, {"measurement": "H3K9ac levels normalized to H3 and DMSO control", "setting": "[6]; 20 uM", "value": 70.92, "unit": "%"}, {"measurement": "H3K9ac levels normalized to H3 and DMSO control", "setting": "[6]; 50 uM", "value": 116.85, "unit": "%"}, {"measurement": "H3K9ac levels normalized to H3 and DMSO control", "setting": "[6]; 100 uM", "value": 107.80, "unit": "%"}, {"measurement": "Plasma concentration, mean", "setting": "[7]; Rat (SD), 0.083 hr, terminal, listed as ADG I-207, 1 mg/kg", "value": "1660*** ng/mL"}, {"measurement": "Plasma concentration, mean", "setting": "[7]; Rat (SD), 1 hr, terminal, listed as ADG I-207, 1 mg/kg", "value": 55, "unit": "ng/mL"}, {"measurement": "Plasma concentration, mean", "setting": "[7]; Rat (SD), 4 hr, terminal, listed as ADG I-207, 1 mg/kg", "value": 1, "unit": "ng/mL"}, {"measurement": "Plasma concentration, mean", "setting": "[7]; Rat (SD), 8 hr, terminal, listed as ADG I-207, 1 mg/kg", "value": 1, "unit": "ng/mL"}, {"measurement": "Plasma concentration, mean", "setting": "[7]; Rat (SD), 24 hr, terminal, BQL limit 1.00 ng/mL (ADG I-205: 2.00 ng/mL)", "value": "BQL"}, {"measurement": "Plasma concentration, individual animal", "setting": "[7]; Rat, 0.0830 hr, terminal, third animal received only 70% of the test article, listed as ADG I-207, 1 mg/kg", "value": "1640 ng/mL and 2230 ng/mL and 1110 ng/mL"}, {"measurement": "Plasma concentration, individual animal", "setting": "[7]; Rat, 0.500 hr, not terminal (animals 4, 5 and 6), listed as ADG I-207, 1 mg/kg", "value": "1560** ng/mL and 93.3 ng/mL and 170 ng/mL"}, {"measurement": "Plasma concentration, individual animal", "setting": "[7]; Rat, 1.00 hr, terminal, listed as ADG I-207, 1 mg/kg", "value": "70.3 ng/mL and 27.3 ng/mL and 65.8 ng/mL"}, {"measurement": "Plasma concentration, individual animal", "setting": "[7]; Rat, 4.00 hr, terminal, BQL limit 1.00 ng/mL (ADG I-205: 2.00 ng/mL), listed as ADG I-207, 1 mg/kg", "value": "BQL"}, {"measurement": "Plasma concentration, individual animal", "setting": "[7]; Rat, 8.00 hr, terminal, BQL limit 1.00 ng/mL (ADG I-205: 2.00 ng/mL), listed as ADG I-207, 1 mg/kg", "value": "BQL and 1.09 ng/mL"}, {"measurement": "Plasma concentration, individual animal", "setting": "[7]; Rat, 24.0 hr, terminal, BQL limit 1.00 ng/mL (ADG I-205: 2.00 ng/mL)", "value": "BQL"}, {"measurement": "concentration at 0.083 h", "setting": "[7]; SD, rat, plasma, iv, 1 mg/kg, Rat (SD), 0.083 hr, terminal, read-out: Plasma concentration, mean", "value": 1660, "unit": "ng/mL"}, {"measurement": "concentration at 0.5 h", "setting": "[7]; SD, rat, plasma, iv, 1 mg/kg, Rat (SD), 0.500 hr, not a terminal time point (animals 4, 5 and 6)", "value": 608, "unit": "ng/mL"}, {"measurement": "concentration at 1 h", "setting": "[7]; SD, rat, plasma, iv, 1 mg/kg, Rat (SD), 1 hr, terminal, read-out: Plasma concentration, mean", "value": 54.5, "unit": "ng/mL"}, {"measurement": "concentration at 4 h", "setting": "[7]; SD, rat, plasma, iv, 1 mg/kg, Rat (SD), 4 hr, terminal, read-out: Plasma concentration, mean", "value": 1.37, "unit": "ng/mL"}, {"measurement": "concentration at 8 h", "setting": "[7]; SD, rat, plasma, iv, 1 mg/kg, Rat (SD), 8 hr, terminal, read-out: Plasma concentration, mean", "value": 1.05, "unit": "ng/mL"}, {"measurement": "concentration at 4 h", "setting": "[7]; SD, rat, plasma, iv, 1 mg/kg, Rat, 4.00 hr, terminal, BQL limit 1.00 ng/mL (ADG I-205: 2.00 ng/mL), read-out: Plasma concentration, individual animal", "value": 1.37, "unit": "ng/mL"}, {"measurement": "concentration at 8 h", "setting": "[7]; SD, rat, plasma, iv, 1 mg/kg, Rat, 8.00 hr, terminal, BQL limit 1.00 ng/mL (ADG I-205: 2.00 ng/mL), read-out: Plasma concentration, individual animal", "value": 1, "unit": "ng/mL"}, {"measurement": "Brain concentration, mean", "setting": "[8]; Rat (SD), 1 hr, listed as ADG I-207, 1 mg/kg", "value": 51, "unit": "ng/g"}, {"measurement": "Brain concentration, mean", "setting": "[8]; Rat (SD), 4 hr, BQL limit 10.0 ng/g (204, 206), 20.0 ng/g (205, 207)", "value": "BQL"}, {"measurement": "Brain concentration, mean", "setting": "[8]; Rat (SD), 8 hr, BQL limit 10.0 ng/g (204, 206), 20.0 ng/g (205, 207)", "value": "BQL"}, {"measurement": "Brain concentration, mean", "setting": "[8]; Rat (SD), 24 hr, BQL limit 10.0 ng/g (204, 206), 20.0 ng/g (205, 207)", "value": "BQL"}, {"measurement": "Brain concentration, individual animal", "setting": "[8]; Rat, 0.0830 hr, third animal received only 70% of the test article, listed as ADG I-207, 1 mg/kg", "value": "204 ng/g and 253 ng/g and 119*** ng/g"}, {"measurement": "Brain concentration, individual animal", "setting": "[8]; Rat, 1.00 hr, listed as ADG I-207, 1 mg/kg", "value": "39.8 ng/g and 58.9 ng/g"}, {"measurement": "Brain concentration, individual animal", "setting": "[8]; Rat, 4.00 hr, BQL limit 10.0 ng/g (204, 206), 20.0 ng/g (205, 207)", "value": "BQL"}, {"measurement": "Brain concentration, individual animal", "setting": "[8]; Rat, 8.00 hr, BQL limit 10.0 ng/g (204, 206), 20.0 ng/g (205, 207)", "value": "BQL"}, {"measurement": "Brain concentration, individual animal", "setting": "[8]; Rat, 24.0 hr, BQL limit 10.0 ng/g (204, 206), 20.0 ng/g (205, 207)", "value": "BQL"}, {"measurement": "concentration at 0.083 h", "setting": "[8]; SD, rat, brain, iv, 1 mg/kg, Rat (SD), 0.083 hr", "value": 192, "unit": "ng/g"}, {"measurement": "concentration at 1 h", "setting": "[8]; SD, rat, brain, iv, 1 mg/kg, Rat (SD), 1 hr, read-out: Brain concentration, mean", "value": 50.8, "unit": "ng/g"}, {"measurement": "concentration at 1 h", "setting": "[8]; SD, rat, brain, iv, 1 mg/kg, Rat, 1.00 hr, read-out: Brain concentration, individual animal", "value": 53.6, "unit": "ng/g"}, {"measurement": "half-life at 2 μM", "setting": "[9]", "value": 5.5, "unit": "min"}, {"measurement": "Protein binding, plasma: % Protein free", "setting": "[10]", "value": 0.9428, "unit": "% Protein free"}]}]}
